# Reference: patent US20130165368A1, “ANTIMICROBIAL COMPOUNDS” (priority 2010, published 2013)
# Tested on: Escherichia coli
# Experiment: MIC agar dilution, micro-organism 1 (10418)
# Assay type: cell-based
# Settings: Escherichia coli 10418; 22 hrs; read-out: MIC
# In short: (§1)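 Twofold dilutions of compound emulsions in water were set in Isosensitest agar with Brazier's CCEY medium, egg yolk and lysed horse blood. Spots of 1 µL from 0.5 McFarland suspensions diluted 1/15 were incubated aerobically at 37 °C and read at 22 and 48 h. MIC (mmol/L) was the lowest concentration giving <10 colonies.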
row,Compound,MIC
1,"CCCCCCCCCCCCOCCOCCOCCOCCOCCOCCO [L6, Hexaethylene Glycol Monododecyl Ether]",> 880 µM
2,"CCCCCCCCCCCCOCCOCCO [L2, Diethylene Glycol Monododecyl Ether]",> 880 µM

# Same assay, conditions: Escherichia coli 10418; 48 hrs; read-out: MIC
row,Compound,MIC
1,"CCCCCCCCCCCCOCCOCCOCCOCCOCCOCCO [L6, Hexaethylene Glycol Monododecyl Ether]",> 880 µM
2,"CCCCCCCCCCCCOCCOCCO [L2, Diethylene Glycol Monododecyl Ether]",> 880 µM

# Tested on: Providencia rettgeri
# Experiment: MIC agar dilution, micro-organism 3 (7475)
# Assay type: cell-based
# Settings: Providencia rettgeri 7475; 22 hrs; read-out: MIC
# In short: as §1
row,Compound,MIC
1,"CCCCCCCCCCCCOCCOCCOCCOCCOCCOCCO [L6, Hexaethylene Glycol Monododecyl Ether]",> 880 µM
2,"CCCCCCCCCCCCOCCOCCO [L2, Diethylene Glycol Monododecyl Ether]",> 880 µM

# Same assay, conditions: Providencia rettgeri 7475; 48 hrs; read-out: MIC
row,Compound,MIC
1,"CCCCCCCCCCCCOCCOCCOCCOCCOCCOCCO [L6, Hexaethylene Glycol Monododecyl Ether]",> 880 µM
2,"CCCCCCCCCCCCOCCOCCO [L2, Diethylene Glycol Monododecyl Ether]",> 880 µM

# Tested on: Enterococcus faecium
# Experiment: MIC agar dilution, micro-organism 16 (7171)
# Assay type: cell-based
# Settings: Enterococcus faecium 7171; 22 hrs; read-out: MIC
# In short: as §1
row,Compound,MIC
1,"CCCCCCCCCCCCOCCOCCOCCOCCOCCOCCO [L6, Hexaethylene Glycol Monododecyl Ether]",440 µM
2,"CCCCCCCCCCCCOCCOCCO [L2, Diethylene Glycol Monododecyl Ether]",> 880 µM

# Same assay, conditions: Enterococcus faecium 7171; 48 hrs; read-out: MIC
row,Compound,MIC
1,"CCCCCCCCCCCCOCCOCCOCCOCCOCCOCCO [L6, Hexaethylene Glycol Monododecyl Ether]",220 µM
2,"CCCCCCCCCCCCOCCOCCO [L2, Diethylene Glycol Monododecyl Ether]",> 880 µM

# Tested on: Enterococcus faecalis
# Experiment: MIC agar dilution, micro-organism 17 (775)
# Assay type: cell-based
# Settings: Enterococcus faecalis 775; 22 hrs; read-out: MIC
# In short: as §1
row,Compound,MIC
1,"CCCCCCCCCCCCOCCOCCOCCOCCOCCOCCO [L6, Hexaethylene Glycol Monododecyl Ether]",110 µM
2,"CCCCCCCCCCCCOCCOCCO [L2, Diethylene Glycol Monododecyl Ether]",220 µM

# Same assay, conditions: Enterococcus faecalis 775; 48 hrs; read-out: MIC
row,Compound,MIC
1,"CCCCCCCCCCCCOCCOCCOCCOCCOCCOCCO [L6, Hexaethylene Glycol Monododecyl Ether]",110 µM
2,"CCCCCCCCCCCCOCCOCCO [L2, Diethylene Glycol Monododecyl Ether]",220 µM

# Tested on: Bacillus subtilis
# Experiment: MIC agar dilution, micro-organism 18 (9372)
# Assay type: cell-based
# Settings: Bacillus subtilis 9372; 22 hrs; read-out: MIC
# In short: as §1
row,Compound,MIC
1,"CCCCCCCCCCCCOCCOCCOCCOCCOCCOCCO [L6, Hexaethylene Glycol Monododecyl Ether]",110 µM
2,"CCCCCCCCCCCCOCCOCCO [L2, Diethylene Glycol Monododecyl Ether]",110 µM

# Same assay, conditions: Bacillus subtilis 9372; 48 hrs; read-out: MIC
row,Compound,MIC
1,"CCCCCCCCCCCCOCCOCCOCCOCCOCCOCCO [L6, Hexaethylene Glycol Monododecyl Ether]",110 µM
2,"CCCCCCCCCCCCOCCOCCO [L2, Diethylene Glycol Monododecyl Ether]",220 µM

# Tested on: Candida albicans
# Experiment: MIC agar dilution, micro-organism 19 (90028)
# Assay type: cell-based
# Settings: Candida albicans 90028; 22 hrs; read-out: MIC
# In short: as §1
row,Compound,MIC
1,"CCCCCCCCCCCCOCCOCCOCCOCCOCCOCCO [L6, Hexaethylene Glycol Monododecyl Ether]",> 880 µM
2,"CCCCCCCCCCCCOCCOCCO [L2, Diethylene Glycol Monododecyl Ether]",220 µM

# Same assay, conditions: Candida albicans 90028; 48 hrs; read-out: MIC
row,Compound,MIC
1,"CCCCCCCCCCCCOCCOCCOCCOCCOCCOCCO [L6, Hexaethylene Glycol Monododecyl Ether]",880 µM
2,"CCCCCCCCCCCCOCCOCCO [L2, Diethylene Glycol Monododecyl Ether]",220 µM

# Tested on: Enterococcus faecium (VRE) MB 305
# Experiment: MIC agar dilution, VRE strain 25
# Assay type: cell-based
# Settings: 22 hrs
# Description: (§2) Molar equivalent concentrations were used to allow comparison between compounds of differing molecular mass. Due to weighing difficulties, any compound in solid form was melted in a water bath prior to dilution. To make ten-times strength concentrations, which takes into account agar dilution, 0.0352 mmol of each compound was weighed into plastic universal bottles and 4 mL of sterile distilled water (SDW) was added. To produce a homogenous emulsion the universals were vortexed; once achieved the emulsions were serial diluted by adding 2 mL to 2 mL of SDW.
# (§3) For every 100 mL of Isosensitest agar (IST) (CM0471; Oxoid, Basingstoke, England), 3.1 g of the IST powder was added to 100 mL SDW (as per manufacturer's instructions) and sterilised for 15 minutes at 121° C. Once sterilised, the molten agar was cooled to 50° C. in a water-bath. Subsequently 4.8 g of CCEY powder (BC2160; Bioconnections, Wetherby, England), also known as Brazier's medium, was added to 100 mL SDW for every 100 mL of agar needed. This was then sterilised for 15 minutes at 121° C. Once sterilised the molten agar was cooled to 50° C. in a water-bath and 4 mL of egg-yolk emulsion (S2073; TCS Biosciences Ltd, Buckingham, United Kingdom) and 1 mL of lysed defibrinated horse blood (HB035; TCS Biosciences Ltd, Buckingham, United Kingdom) were also added for every 100 mL needed. Horse blood lysis is achieved by dilution to half concentration with SDW; when fully lysed the mixture will turn dark red in colour.
# (§4) 18 mL agar was added to each universal and then poured into sterile Petri dishes. This step creates a 1/10 dilution resulting in agar plates of the required strength. Control plates for each set of strains were created by adding 18 mL of agar to 2 mL of SDW.
# (§5) Suspensions of each bacterial species were prepared with a density equal to that of a 0.5 McFarland standard using a densitometer. All suspensions were made using sterile distilled water and fresh 18-20 hour cultures. As a 0.5 McFarland standard contains 1.5×10^8 CFU/mL and the multipoint inoculators applies 1 μL spots of liquid, each bacterial suspension was diluted 1/15 (20 μL suspension to 280 μL sterile distilled water).
# (§6) Bacterial suspensions were prepared from fresh 18-24 hour cultures as previously described. 1 μL of each strain was inoculated onto all 100 agar plates containing a different chemical concentration and the 2 control plates. This was done using a multipoint inoculator which inoculates 20 strains per plate. All plates were incubated for 22 hours at 37° C. in aerobic conditions.
# (§7) Each plate was examined for bacterial growth after 22 and 48 hours, with each being incubated in between examinations. A positive result was recorded as growth of ≧10 colonies. A negative result was recorded as growth of <10 colonies as this is equivalent to 99.9% inhibition. The lowest concentration of chemical that inhibited growth was recorded as the MIC. The results are recorded in Table IV below, where the numbers are quoted in mmol/L.
# (§8) Given the positive performance of the ethoxylates of lauryl alcohol in reducing the MIC for a number of the micro-organisms tested, further MIC testing of Laureth-1 [C12E1] through to Laureth-8 [C12E8] was conducted on each of the following: • 10 strains of vancomycin-resistant enterococci (VRE)—listed in Table V below; and • 20 strains of methicillin-resistant Staphylococcus aureus (MRSA)—listed in Table VI.
# (§9) The alkanol, alkanol derivatives, agar plates, and inocula were all prepared in the same way as described above.
# (§10) The plates were examined in the same manner as described above and the results are recorded in Table VII below, where the numbers are quoted in mmol/L.
row,Compound,MIC
1,"CCCCCCCCCCCCOCCOCCOCCOCCOCCOCCO [L6, Hexaethylene Glycol Monododecyl Ether]",220 µM
2,"CCCCCCCCCCCCOCCOCCO [L2, Diethylene Glycol Monododecyl Ether]",880 µM

# Same assay, conditions: 48 hrs
row,Compound,MIC
1,"CCCCCCCCCCCCOCCOCCOCCOCCOCCOCCO [L6, Hexaethylene Glycol Monododecyl Ether]",220 µM
2,"CCCCCCCCCCCCOCCOCCO [L2, Diethylene Glycol Monododecyl Ether]",880 µM

# Tested on: Enterococcus faecium (VRE) MB310
# Experiment: MIC agar dilution, VRE strain 29
# Assay type: cell-based
# Settings: 22 hrs
# Description: as §2, §3, §4, §5, §6, §7, §8, §9, §10
row,Compound,MIC
1,"CCCCCCCCCCCCOCCOCCOCCOCCOCCOCCO [L6, Hexaethylene Glycol Monododecyl Ether]",220 µM
2,"CCCCCCCCCCCCOCCOCCO [L2, Diethylene Glycol Monododecyl Ether]",880 µM

# Same assay, conditions: 48 hrs
row,Compound,MIC
1,"CCCCCCCCCCCCOCCOCCOCCOCCOCCOCCO [L6, Hexaethylene Glycol Monododecyl Ether]",220 µM
2,"CCCCCCCCCCCCOCCOCCO [L2, Diethylene Glycol Monododecyl Ether]",880 µM

# Tested on: MRSA FIN 54518 (E7)
# Experiment: MIC agar dilution, MRSA strain 31
# Assay type: cell-based
# Settings: Staphylococcus aureus, 22 hrs
# Description: as §2, §3, §4, §5, §6, §7, §8, §9, §10
row,Compound,MIC
1,"CCCCCCCCCCCCOCCOCCOCCOCCOCCOCCO [L6, Hexaethylene Glycol Monododecyl Ether]",> 440 µM
2,"CCCCCCCCCCCCOCCOCCO [L2, Diethylene Glycol Monododecyl Ether]",220 µM

# Same assay, conditions: Staphylococcus aureus, 48 hrs
row,Compound,MIC
1,"CCCCCCCCCCCCOCCOCCOCCOCCOCCOCCO [L6, Hexaethylene Glycol Monododecyl Ether]",> 440 µM
2,"CCCCCCCCCCCCOCCOCCO [L2, Diethylene Glycol Monododecyl Ether]",220 µM

# Tested on: MRSA FIN 54511 (E6)
# Experiment: MIC agar dilution, MRSA strain 32
# Assay type: cell-based
# Settings: Staphylococcus aureus, 22 hrs
# Description: as §2, §3, §4, §5, §6, §7, §8, §9, §10
row,Compound,MIC
1,"CCCCCCCCCCCCOCCOCCOCCOCCOCCOCCO [L6, Hexaethylene Glycol Monododecyl Ether]",110 µM
2,"CCCCCCCCCCCCOCCOCCO [L2, Diethylene Glycol Monododecyl Ether]",110 µM

# Same assay, conditions: Staphylococcus aureus, 48 hrs
row,Compound,MIC
1,"CCCCCCCCCCCCOCCOCCOCCOCCOCCOCCO [L6, Hexaethylene Glycol Monododecyl Ether]",110 µM
2,"CCCCCCCCCCCCOCCOCCO [L2, Diethylene Glycol Monododecyl Ether]",110 µM

# Tested on: MRSA GER 1966/97 (Hanover IIIc)
# Experiment: MIC agar dilution, MRSA strain 36
# Assay type: cell-based
# Settings: Staphylococcus aureus, 22 hrs
# Description: as §2, §3, §4, §5, §6, §7, §8, §9, §10
row,Compound,MIC
1,"CCCCCCCCCCCCOCCOCCOCCOCCOCCOCCO [L6, Hexaethylene Glycol Monododecyl Ether]",110 µM
2,"CCCCCCCCCCCCOCCOCCO [L2, Diethylene Glycol Monododecyl Ether]",110 µM

# Same assay, conditions: Staphylococcus aureus, 48 hrs
row,Compound,MIC
1,"CCCCCCCCCCCCOCCOCCOCCOCCOCCOCCO [L6, Hexaethylene Glycol Monododecyl Ether]",110 µM
2,"CCCCCCCCCCCCOCCOCCO [L2, Diethylene Glycol Monododecyl Ether]",110 µM

# Tested on: MRSA FRA 95035
# Experiment: MIC agar dilution, MRSA strain 37
# Assay type: cell-based
# Settings: Staphylococcus aureus, 22 hrs
# Description: as §2, §3, §4, §5, §6, §7, §8, §9, §10
row,Compound,MIC
1,"CCCCCCCCCCCCOCCOCCOCCOCCOCCOCCO [L6, Hexaethylene Glycol Monododecyl Ether]",220 µM
2,"CCCCCCCCCCCCOCCOCCO [L2, Diethylene Glycol Monododecyl Ether]",220 µM

# Same assay, conditions: Staphylococcus aureus, 48 hrs
row,Compound,MIC
1,"CCCCCCCCCCCCOCCOCCOCCOCCOCCOCCO [L6, Hexaethylene Glycol Monododecyl Ether]",440 µM
2,"CCCCCCCCCCCCOCCOCCO [L2, Diethylene Glycol Monododecyl Ether]",220 µM

# Tested on: MRSA NCTC 11939
# Experiment: MIC agar dilution, MRSA strain 50
# Assay type: cell-based
# Settings: Staphylococcus aureus; MRSA strain 50 NCTC 11939; 22 hrs
# Description: as §2, §3, §4, §5, §6, §7, §8, §9, §10
row,Compound,MIC
1,"CCCCCCCCCCCCOCCOCCOCCOCCOCCOCCO [L6, Hexaethylene Glycol Monododecyl Ether]",110 µM
2,"CCCCCCCCCCCCOCCOCCO [L2, Diethylene Glycol Monododecyl Ether]",55 µM

# Same assay, conditions: Staphylococcus aureus; MRSA strain 50 NCTC 11939; 48 hrs
row,Compound,MIC
1,"CCCCCCCCCCCCOCCOCCOCCOCCOCCOCCO [L6, Hexaethylene Glycol Monododecyl Ether]",110 µM
2,"CCCCCCCCCCCCOCCOCCO [L2, Diethylene Glycol Monododecyl Ether]",110 µM
